Read-outs that look alike come from different tables or passages of the source.
What was measured:
[1] = test system: T98G cells; assay: Cell viability, Alamar Blue, 7-day incubation, T98G; type: cell-based; conditions: Homo sapiens, 168 h, MGMT +, error SEM
Method: (§1) Anticancer activity of C8 substituted imidazotetrazines. With a suite of imidazotetrazines in hand, each compound was evaluated against a panel of human GBM cell lines (Table 1a, Table 1b).

[2] = test system: U87 cells; assay: Cell viability, Alamar Blue, 7-day incubation, U87; type: cell-based; conditions: Homo sapiens, U-87 MG, 168 h, MGMT −, error SEM
Method: as §1

[3] = Mouse liver microsome stability assay; type: in vitro ADME; conditions: for Stability (2 h, Microsomes): percentage remaining relative to t0, error SEM, n ≥ 2; for metabolic stability in words: mouse liver microsomes, 2 hours
Method: (§2) Liver microsome stability.
(§3) Mouse Liver Microsome Stability Assay. A mixture of PBS (pH 7.4), NADPH regenerating system solution A (Corning Life Sciences), and NADPH regenerating system solution B (Corning Life Sciences) was incubated at 37° C. in a shaking incubator for 5 min. Next, compound was added in DMSO (final concentration 50 μM, 0.5% DMSO) before ice-cold mouse liver microsomes (Thermo Fisher, male CD-1 mice, pooled) were added (final protein concentration of 1 mg/mL). An aliquot was immediately removed, quenched with an equal volume of 100 μM internal standard and 0.5% hydrochloric acid in ice-cold acetonitrile, and centrifuged at 13,000 rcf for 3 min. The supernatant was diluted 1:5 in ddH2O and analyzed by LC-MS. The reactions were incubated at 37° C. in a shaking incubator for 2 h. A second aliquot was removed, quenched and diluted as before and analyzed by LC-MS. The ratio of the areas of analyte:internal standard at 2 hours was compared to the ratio at t0 to determine the percentage of compound remaining. Analysis was performed on an Agilent 6230 LC/MS TOF system with a 1.8 μm, 2.1×50 mm Agilent ZORBAX Eclipse Plus C18 column.

[4] = test system: D54 cells; assay: Cell viability, Alamar Blue, 7-day incubation, D54; type: cell-based; conditions: Homo sapiens, D54, 168 h, MGMT −, error SEM
Method: as §1

[5] = Stability in the absence of microsomes (microsomes replaced with PBS); type: physicochemical; conditions: liver microsomes replaced with PBS, percentage remaining relative to t0
Method: as §2, §3

[6] = test system: GBM Br23c oncospheres intracranially implanted; assay: Intracranial mouse model of GBM (Br23c oncospheres); type: in vivo; conditions: for increase in median survival over TMZ: equimolar to 15 mg/kg TMZ, oral gavage once-per-day, 5×/week, 7 weeks
Text: FIG. 5. Evaluation of imidazotetrazines in intracranial mouse models of GBM. GBM Br23c oncospheres were intracranially implanted into female athymic nude mice. Treatment was started 5 days post implantation. […] Compounds were formulated in 10% PEG in PBS immediately prior to each treatment. Number of mice per treatment cohort≥5. Survival curves were compared using log-rank test.
in vivo Efficacy Models. Human GBM Br23c stem-like neurosphere cells were intracranially implanted in female athymic nude mice (150,000 cells/mouse). […] Mice were observed daily for any signs of deterioration, neurotoxicity, or movement disorders. They were inspected for signs of pain and distress, as in accordance with the Johns Hopkins Animal Care and Use Guidelines.

[7] = test system: Br23c GBM oncosphere cell line; assay: Cell viability, Alamar Blue, 7-day, Br23c GBM oncosphere line; type: cell-based; conditions: Homo sapiens, 168 h, error SEM, read-out: 7-day IC50 MGMT − Br23C
[8] = Assessment of hematological toxicity in vivo
Method: Assessment of hematological toxicity. […] Both lymphocyte (FIG. 3b) and neutrophil (FIG. 8a) concentrations were decreased in TMZ-treated mice. […] Total WBC, lymphocyte, and neutrophil counts for mice treated with these compounds were equivalent to those of control mice.
Assessment of Hematological Toxicity. Male CD-1 IGS mice (n=4 mice/group) were administered a single dose of 125 mg/kg compound intravenously. Imidazotetrazines were formulated with SBEβCD in sterile water immediately prior to injection. Seven days post-treatment, mice were humanely sacrificed and whole blood was collected for assessment of total white blood cells, lymphocytes, neutrophils, platelets, and red blood cells.

[9] = test system: T98G cells; assay: cells; type: cell-based; conditions: for IC50: Homo sapiens, 7-day incubation; for Fold Change: between IC50 (+/−) O6BG
Method: FIG. 4. Imidazotetrazines were added to T98G cells with or without 3 h pre-treatment of O6BG (100 μM). IC50 values after 7-day incubation and fold changes between (+/−) O6BG treatments are reported. […] Error is SEM, n≥3. Statistical significance was determined by using a two-sample Student's t-test (two-tailed test, assuming equal variance).

[10] = Hydrolytic stability in buffered saline (HPLC assay); conditions: saline at pH 7.0, 7.4, and 8.0, 2 h at 37° C.
Method: Hydrolytic stability of C8 substituted imidazotetrazines. […] A HPLC assay was developed to quantify the fraction of intact prodrug remaining in solution after 2 hours at pH 7.4, 37° C.

[11] = Table 1b, read-out: 7-day IC50 T98G
[12] = Table 1b, read-out: 7-day IC50 U87
[13] = Table 1a, 7 days, read-out: IC50 T98G
[14] = Table 1a, 7 days, n ≥ 3, read-out: IC50 U87
[15] = Table 1a, 7 days, read-out: IC50 D54
[16] = 3 h pre-treatment with O6BG (100 μM)
[17] = Table 1b, read-out: 7-day IC50 D54

| SMILES | IC50 [1, 13] [µM] | metabolic stability in words [3] | IC50 [2, 14] [µM] | IC50 [4, 15] [µM] | further results |
| --- | --- | --- | --- | --- | --- |
| Cn1nnc2c(-c3ccc(F)cc3)ncn2c1=O [Compound 24, 8-(4-fluorophenyl)-3-methylimidazo[5,1-d][1,2,3,5]tetrazin-4(3H)-one] |  |  |  |  | IC50 [1, 11]: 18 ± 2 µM; IC50 [2, 12]: 13 ± 2 µM |
| Cn1nnc2c(Cl)ncn2c1=O [Compound 19, 8-chloro-3-methylimidazo[5,1-d][1,2,3,5]tetrazin-4(3H)-one] | 60 ± 10 | generally stable to oxidative metabolism | 15 ± 4 | 21 ± 4 | Stability (2 h, Microsomes) [3]: 91 ± 3%; Stability (2 h, No Microsomes) [5]: 91 ± 1% |
| Cn1nnc2c(-c3ccc(C(F)(F)F)cc3)ncn2c1=O [Compound 25, 3-methyl-8-(4-(trifluoromethyl)phenyl)imidazo[5,1-d][1,2,3,5]tetrazin-4(3H)-one] |  |  |  |  | IC50 [1, 11]: > 100 µM; IC50 [2, 12]: 16 ± 1 µM |
| Cn1nnc2c(C(=O)O)ncn2c1=O [Compound 3] | 321 ± 8 |  | 320 ± 7 | 130 ± 8 |  |
| CCN(CC)C(=O)c1ncn2c(=O)n(C)nnc12 [Compound 6, N,N-diethyl-3-methyl-4-oxo-3,4-dihydroimidazo[5,1-d][1,2,3,5]tetrazine-8-carboxamide] | 160 ± 40 |  | 80 ± 30 | 13 ± 2 | Stability (2 h, Microsomes) [3]: 81 ± 1%; Stability (2 h, No Microsomes) [5]: 95 ± 2% |
| CNC(=O)c1ncn2c(=O)n(C)nnc12 [Compound 4, N,3-dimethyl-4-oxo-3,4-dihydroimidazo[5,1-d][1,2,3,5]tetrazine-8-carboxamide] | 580 ± 20 | some susceptibility to the effects of the microsomes | 49 ± 7 | 11 ± 1 | increase in median survival over TMZ [6]: 24%; IC50 [7]: 6 ± 1 µM |
| Cn1nnc2c(C(N)=S)ncn2c1=O [Compound 28, 3-methyl-4-oxo-3,4-dihydroimidazo[5,1-d][1,2,3,5]tetrazine-8-carbothioamide] | 31 ± 4 |  | 9 ± 1 | 8 ± 1 |  |
| CC(=O)c1ncn2c(=O)n(C)nnc12 [Compound 17, 8-acetyl-3-methylimidazo[5,1-d][1,2,3,5]tetrazin-4(3H)-one] |  | generally stable to oxidative metabolism |  | 18 ± 1 | Cohort weight 7 days Post ([8]; mice, 7 days after single IV dose of 125 mg/kg, error SEM, 4 mice): 31 ± 1 g; Cohort weight Pre-treatment ([8]; mice, prior to single IV dose of 125 mg/kg, error SEM, 4 mice): 30 ± 1 g; myelosuppression / white blood cell effect ([8]; mice, single IV dose 125 mg/kg, complete blood count after 7 days): did not produce myelosuppression; extension of median survival past TMZ-treated mice ([6]; 14.9 mg/kg oral once-per-day for 5 total doses): more than 50 days; IC50 [7]: 5.2 ± 0.3 µM; IC50 [9, 16]: 32 ± 4 µM; IC50 ([9]; 168 h, without O6BG): 240 ± 20 µM; Fold Change [9]: 8; pH dependence of hydrolysis [10]: pH-dependent |
| Cn1nnc2c(-c3ccc(Cl)cc3)ncn2c1=O [Compound 26, 8-(4-chlorophenyl)-3-methylimidazo[5,1-d][1,2,3,5]tetrazin-4(3H)-one] |  |  |  |  | IC50 [1, 11]: 19 ± 3 µM; IC50 [2, 12]: 9 ± 1 µM; IC50 [4, 17]: 7 ± 1 µM |
| CN(C)C(=O)c1ncn2c(=O)n(C)nnc12 [Compound 5, N,N,3-trimethyl-4-oxo-3,4-dihydroimidazo[5,1-d][1,2,3,5]tetrazine-8-carboxamide] | 250 ± 60 | some susceptibility to the effects of the microsomes | 40 ± 20 | 12 ± 5 | increase in median survival over TMZ [6]: 46%; IC50 [7]: 6 ± 1 µM; IC50 [9, 16]: 25 ± 9 µM; IC50 ([9]; 168 h, without O6BG): 250 ± 60 µM; Fold Change [9]: 10 |
| Cn1nnc2c(C(=O)N3CCCC3)ncn2c1=O [Compound 8, 3-methyl-8-(pyrrolidine-1-carbonyl)imidazo[5,1-d][1,2,3,5]tetrazin-4(3H)-one] | 186 ± 5 |  | 17 ± 3 | 12 ± 4 |  |
| Cn1nnc2c(-c3ccccc3)ncn2c1=O [Compound 23, 3-methyl-8-phenylimidazo[5,1-d][1,2,3,5]tetrazin-4(3H)-one] | 14 ± 1 |  | 9 ± 1 | 7 ± 1 | Stability (2 h, Microsomes) [3]: 44 ± 2%; Stability (2 h, No Microsomes) [5]: 103 ± 5% |
| CCCCN(CCCC)C(=O)c1ncn2c(=O)n(C)nnc12 [Compound 7, N,N-dibutyl-3-methyl-4-oxo-3,4-dihydroimidazo[5,1-d][1,2,3,5]tetrazine-8-carboxamide] | 140 ± 20 | markedly less stability in liver microsomes | 27 ± 6 | 11 ± 2 | Stability (2 h, Microsomes) [3]: 1 ± 1%; Stability (2 h, No Microsomes) [5]: 98 ± 3% |
| Cn1nnc2c(Br)ncn2c1=O [Compound 18, 8-bromo-3-methylimidazo[5,1-d][1,2,3,5]tetrazin-4(3H)-one] |  |  |  |  | IC50 [1, 11]: 60 ± 10 µM; IC50 [2, 12]: 26 ± 7 µM; IC50 [4, 17]: 20 ± 1 µM |
| CCSC(=O)c1ncn2c(=O)n(C)nnc12 [Compound 10, S-ethyl 3-methyl-4-oxo-3,4-dihydroimidazo[5,1-d][1,2,3,5]tetrazine-8-carbothioate] | 327 ± 4 |  | 64 ± 21 | 8 ± 1 |  |
| Cc1cnc(-c2ncn3c(=O)n(C)nnc23)o1 [Compound 27, 3-methyl-8-(5-methyloxazol-2-yl)imidazo[5,1-d][1,2,3,5]tetrazin-4(3H)-one] | 100 ± 20 |  | 27 ± 4 | 9 ± 1 | Cohort weight 7 days Post ([8]; mouse, in vivo, iv, 125 mg/kg): 31.6 ± 0.3 g; myelosuppression / white blood cell effect ([8]; mouse, in vivo, iv, 125 mg/kg): did not produce myelosuppression; IC50 [9, 16]: 5 ± 1 µM; IC50 ([9]; 168 h, without O6BG): 100 ± 20 µM; Fold Change [9]: 20 |
